Results taken from PubChem BioAssay (NCI).
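In this assay, cells in 96-well plates receive the compound at five concentrations for 48 hours. Endpoints are linearly interpolated between the surrounding concentrations. At the TGI there is no net growth.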

What was measured:
Experiment in all cases: growth of human tumour cells (NCI), 48 h
786-0 renal = tested on: 786-0 renal
A498 renal = tested on: A498 renal
A549 NSCLC = tested on: A549 NSCLC
ACHN renal = tested on: ACHN renal
BT-549 breast = tested on: BT-549 breast
CAKI-1 renal = tested on: CAKI-1 renal
CCRF-CEM leukemia = tested on: CCRF-CEM leukemia
COLO 205 colon = tested on: COLO 205 colon
DU-145 prostate = tested on: DU-145 prostate
EKVX NSCLC = tested on: EKVX NSCLC
HCC-2998 colon = tested on: HCC-2998 colon
HCT-116 colon = tested on: HCT-116 colon
HCT-15 colon = tested on: HCT-15 colon
HOP-62 NSCLC = tested on: HOP-62 NSCLC
HS 578T breast = tested on: HS 578T breast
HT29 colon = tested on: HT29 colon
K-562 leukemia = tested on: K-562 leukemia
KM12 colon = tested on: KM12 colon
M14 melanoma = tested on: M14 melanoma
MALME-3M melanoma = tested on: MALME-3M melanoma
MCF7 breast = tested on: MCF7 breast
MDA-MB-231 breast = tested on: MDA-MB-231 breast
MDA-MB-435 = tested on: MDA-MB-435
MDA-N = tested on: MDA-N
MOLT-4 leukemia = tested on: MOLT-4 leukemia
NCI-H226 lung = tested on: NCI-H226 lung
NCI-H23 lung = tested on: NCI-H23 lung
NCI-H460 lung = tested on: NCI-H460 lung
NCI/ADR-RES ovarian = tested on: NCI/ADR-RES ovarian
OVCAR-3 ovarian = tested on: OVCAR-3 ovarian
OVCAR-4 ovarian = tested on: OVCAR-4 ovarian
OVCAR-5 ovarian = tested on: OVCAR-5 ovarian
OVCAR-8 ovarian = tested on: OVCAR-8 ovarian
PC-3 prostate = tested on: PC-3 prostate
RPMI-8226 leukemia = tested on: RPMI-8226 leukemia
RXF 393 renal = tested on: RXF 393 renal
SF-268 CNS = tested on: SF-268 CNS
SF-295 CNS = tested on: SF-295 CNS
SF-539 CNS = tested on: SF-539 CNS
SK-MEL-2 melanoma = tested on: SK-MEL-2 melanoma
SK-MEL-28 melanoma = tested on: SK-MEL-28 melanoma
SK-OV-3 ovarian = tested on: SK-OV-3 ovarian
SN12C renal = tested on: SN12C renal
SNB-19 CNS = tested on: SNB-19 CNS
SNB-75 CNS = tested on: SNB-75 CNS
SW-620 colon = tested on: SW-620 colon
T-47D breast = tested on: T-47D breast
U251 CNS = tested on: U251 CNS
UACC-257 melanoma = tested on: UACC-257 melanoma
UACC-62 melanoma = tested on: UACC-62 melanoma
UO-31 renal = tested on: UO-31 renal
HOP-92 NSCLC = tested on: HOP-92 NSCLC
IGROV1 ovarian = tested on: IGROV1 ovarian
LOX IMVI melanoma = tested on: LOX IMVI melanoma
NCI-H522 lung = tested on: NCI-H522 lung
SK-MEL-5 melanoma = tested on: SK-MEL-5 melanoma
TK-10 renal = tested on: TK-10 renal
HL-60(TB) leukemia = tested on: HL-60(TB) leukemia

Cc1n[nH]c(=O)n1/N=C/c1cccc(Cl)c1
TGI (786-0 renal): > 100 µM | TGI (A498 renal): > 100 µM | TGI (A549 NSCLC): > 100 µM | TGI (ACHN renal): > 100 µM | TGI (BT-549 breast): > 100 µM | TGI (CAKI-1 renal): > 100 µM | TGI (CCRF-CEM leukemia): > 100 µM | TGI (COLO 205 colon): > 100 µM | TGI (DU-145 prostate): > 100 µM | TGI (EKVX NSCLC): > 100 µM | TGI (HCC-2998 colon): > 100 µM | TGI (HCT-116 colon): > 100 µM | TGI (HCT-15 colon): > 100 µM | TGI (HOP-62 NSCLC): > 100 µM | TGI (HS 578T breast): 39.7 µM | TGI (HT29 colon): > 100 µM | TGI (K-562 leukemia): > 100 µM | TGI (KM12 colon): > 100 µM | TGI (M14 melanoma): > 100 µM | TGI (MALME-3M melanoma): > 100 µM | TGI (MCF7 breast): > 100 µM | TGI (MDA-MB-231 breast): > 100 µM | TGI (MDA-MB-435): > 100 µM | TGI (MDA-N): > 100 µM | TGI (MOLT-4 leukemia): > 100 µM | TGI (NCI-H226 lung): > 100 µM | TGI (NCI-H23 lung): > 100 µM | TGI (NCI-H460 lung): > 100 µM | TGI (NCI/ADR-RES ovarian): > 100 µM | TGI (OVCAR-3 ovarian): > 100 µM | TGI (OVCAR-4 ovarian): > 100 µM | TGI (OVCAR-5 ovarian): > 100 µM | TGI (OVCAR-8 ovarian): > 100 µM | TGI (PC-3 prostate): > 100 µM | TGI (RPMI-8226 leukemia): > 100 µM | TGI (RXF 393 renal): > 100 µM | TGI (SF-268 CNS): > 100 µM | TGI (SF-295 CNS): > 100 µM | TGI (SF-539 CNS): > 100 µM | TGI (SK-MEL-2 melanoma): > 100 µM | TGI (SK-MEL-28 melanoma): > 100 µM | TGI (SK-OV-3 ovarian): > 100 µM | TGI (SN12C renal): > 100 µM | TGI (SNB-19 CNS): > 100 µM | TGI (SNB-75 CNS): > 100 µM | TGI (SW-620 colon): > 100 µM | TGI (T-47D breast): > 100 µM | TGI (U251 CNS): > 100 µM | TGI (UACC-257 melanoma): > 100 µM | TGI (UACC-62 melanoma): > 100 µM | TGI (UO-31 renal): > 100 µM

C=CCN(c1cc(OCc2ccccc2)c2c(c(C)cn2S(=O)(=O)c2ccc([N+](=O)[O-])cc2)c1[N+](=O)[O-])S(C)(=O)=O
TGI (786-0 renal): > 100 µM | TGI (A549 NSCLC): > 100 µM | TGI (ACHN renal): > 100 µM | TGI (BT-549 breast): > 100 µM | TGI (CAKI-1 renal): > 100 µM | TGI (CCRF-CEM leukemia): > 52.3 µM | TGI (COLO 205 colon): > 100 µM | TGI (DU-145 prostate): > 100 µM | TGI (EKVX NSCLC): > 100 µM | TGI (HCC-2998 colon): > 100 µM | TGI (HCT-116 colon): > 100 µM | TGI (HCT-15 colon): > 100 µM | TGI (HOP-62 NSCLC): > 100 µM | TGI (HOP-92 NSCLC): > 100 µM | TGI (HS 578T breast): > 100 µM | TGI (HT29 colon): > 100 µM | TGI (IGROV1 ovarian): > 100 µM | TGI (K-562 leukemia): > 100 µM | TGI (KM12 colon): > 100 µM | TGI (LOX IMVI melanoma): > 100 µM | TGI (M14 melanoma): > 100 µM | TGI (MALME-3M melanoma): > 100 µM | TGI (MCF7 breast): > 100 µM | TGI (MDA-MB-231 breast): > 100 µM | TGI (MDA-MB-435): 54.1 µM | TGI (MDA-N): > 100 µM | TGI (MOLT-4 leukemia): > 100 µM | TGI (NCI-H226 lung): > 100 µM | TGI (NCI-H23 lung): > 100 µM | TGI (NCI-H460 lung): > 100 µM | TGI (NCI-H522 lung): > 100 µM | TGI (NCI/ADR-RES ovarian): > 100 µM | TGI (OVCAR-3 ovarian): > 100 µM | TGI (OVCAR-4 ovarian): > 100 µM | TGI (OVCAR-5 ovarian): > 100 µM | TGI (OVCAR-8 ovarian): > 100 µM | TGI (PC-3 prostate): > 100 µM | TGI (RPMI-8226 leukemia): > 100 µM | TGI (RXF 393 renal): > 100 µM | TGI (SF-268 CNS): > 100 µM | TGI (SF-295 CNS): > 100 µM | TGI (SF-539 CNS): > 100 µM | TGI (SK-MEL-2 melanoma): > 100 µM | TGI (SK-MEL-28 melanoma): > 100 µM | TGI (SK-MEL-5 melanoma): > 100 µM | TGI (SK-OV-3 ovarian): > 100 µM | TGI (SN12C renal): > 100 µM | TGI (SNB-19 CNS): > 100 µM | TGI (SNB-75 CNS): > 100 µM | TGI (T-47D breast): > 100 µM | TGI (TK-10 renal): > 100 µM | TGI (U251 CNS): > 100 µM | TGI (UACC-257 melanoma): > 100 µM | TGI (UACC-62 melanoma): > 100 µM | TGI (UO-31 renal): > 100 µM

C[n+]1c2ccccc2c2/c(=C\C#N)c3ccccc3n21
TGI (786-0 renal): 14.8 µM | TGI (A498 renal): 82.8 µM | TGI (A549 NSCLC): 32.9 µM | TGI (ACHN renal): 18.5 µM | TGI (BT-549 breast): 8.42 µM | TGI (CAKI-1 renal): 95.4 µM | TGI (CCRF-CEM leukemia): 50.2 µM | TGI (COLO 205 colon): 4.87 µM | TGI (DU-145 prostate): 45.8 µM | TGI (EKVX NSCLC): 6.54 µM | TGI (HCC-2998 colon): 5.27 µM | TGI (HCT-116 colon): 8.45 µM | TGI (HCT-15 colon): 97.2 µM | TGI (HL-60(TB) leukemia): 26.3 µM | TGI (HOP-62 NSCLC): 8.17 µM | TGI (HS 578T breast): > 100 µM | TGI (HT29 colon): 16.5 µM | TGI (IGROV1 ovarian): 12.2 µM | TGI (K-562 leukemia): > 100 µM | TGI (KM12 colon): 31.7 µM | TGI (LOX IMVI melanoma): 16.6 µM | TGI (M14 melanoma): 18.6 µM | TGI (MALME-3M melanoma): 7.55 µM | TGI (MCF7 breast): 21.7 µM | TGI (MDA-MB-231 breast): 82.3 µM | TGI (MDA-MB-435): 28.1 µM | TGI (MDA-N): 18.6 µM | TGI (MOLT-4 leukemia): 57.7 µM | TGI (NCI-H226 lung): 17.6 µM | TGI (NCI-H23 lung): 77.1 µM | TGI (NCI-H460 lung): 22.8 µM | TGI (NCI/ADR-RES ovarian): > 100 µM | TGI (OVCAR-3 ovarian): 33.1 µM | TGI (OVCAR-4 ovarian): 11.4 µM | TGI (OVCAR-5 ovarian): 26.1 µM | TGI (OVCAR-8 ovarian): 15.9 µM | TGI (RPMI-8226 leukemia): 16.9 µM | TGI (RXF 393 renal): 21.9 µM | TGI (SF-268 CNS): 29.3 µM | TGI (SF-295 CNS): 19.2 µM | TGI (SF-539 CNS): 17.5 µM | TGI (SK-MEL-2 melanoma): 8.52 µM | TGI (SK-MEL-28 melanoma): 30.3 µM | TGI (SK-MEL-5 melanoma): 61.3 µM | TGI (SK-OV-3 ovarian): 16 µM | TGI (SN12C renal): 38 µM | TGI (SNB-19 CNS): > 100 µM | TGI (SNB-75 CNS): 8.16 µM | TGI (SW-620 colon): 11.8 µM | TGI (T-47D breast): 58.5 µM | TGI (TK-10 renal): 8.46 µM | TGI (U251 CNS): 13.9 µM | TGI (UACC-257 melanoma): 20.8 µM | TGI (UACC-62 melanoma): 54.2 µM | TGI (UO-31 renal): 26.7 µM
